The values that follow come from patent publication US11547694B2, “CXCR4/CXCR7 blockade and treatment of human papilloma virus-associated disease” (priority 2017, dated 2023).

Molecules are shown by their SMILES.

In data set [1] the test system is TC-1 tumor cells. It is filed as in vivo. The following applies: C57BL/6 mice with s.c. TC-1 tumors.
Description: Methods. C57BL/6 mice were inoculated with 1×10^5 TC-1 tumor cells subcutaneously into the right flank. When tumors reached approximately 60-70 mm^3 in size, various treatments were initiated. The treatment groups (N=5) consisted of no treatment, administration of an isotype control IgG antibody (clone 2A3, BioXcell), anti-PD-1 monotherapy (clone 29F.1A12, BioXcell), AMD3100 monotherapy (catalog AB120718, AbCam), combination of AMD3100 and anti-PD-1 and combination of AMD3100, anti-PD-1, and an HPV vaccine (See, FIGS. 1, 2, 3, and 4).
The treatment regimen consisted of administration of 0.5 mg/mouse of anti-PD-1 antibody (clone 29F.1A12, BioXcell) or isotype control antibody (clone 2A3, BioXcell) every 5 days for a total of 3 treatments. Prior to each dose of antibody, the mice were treated with 3 mg/kg of AMD3100 (catalog AB120718, AbCam). In addition, a subset of mice were treated with a 1:1 ratio of 20 mcg of HPV E7 peptide vaccine and 20 mcg of poly I:C adjuvant in a total volume of 20 μl, which was administered intratumorally. The tumors were measured twice a week with calipers. When the tumor measured over 2 centimeters in any one direction, the animal was sacrificed according to IACUC policy.
Data set [2] concerns ovarian preclinical cancer model.
Data set [3] deals with CXCR4 (Homo sapiens, UniProt P61073). The note with it: cited from earlier work.
Chain of CXCR4 (P61073 whole entry): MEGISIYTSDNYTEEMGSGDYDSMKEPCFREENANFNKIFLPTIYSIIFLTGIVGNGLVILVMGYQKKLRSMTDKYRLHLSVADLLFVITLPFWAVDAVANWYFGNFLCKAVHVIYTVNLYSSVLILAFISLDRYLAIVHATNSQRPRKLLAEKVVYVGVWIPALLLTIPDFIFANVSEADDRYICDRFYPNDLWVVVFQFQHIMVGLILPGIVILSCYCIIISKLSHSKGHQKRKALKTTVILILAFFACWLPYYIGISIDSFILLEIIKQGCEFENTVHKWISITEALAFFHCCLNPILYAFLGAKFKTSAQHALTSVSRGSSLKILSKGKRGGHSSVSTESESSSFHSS
Data set [4] deals with mature leukocytes. The following applies: administration of AMD3100; cited from earlier work.
For data set [5] the following is noted: 0.01-0.02 mg/kg subcutaneously twice daily for 6 months; phase I clinical trial (Blood 2014; 123(15):2308-16); cited from earlier work.

For `c1cc(CN2CCCNCCNCCCNCC2)ccc1CN1CCCNCCNCCCNCC1` [AMD3100], in data set [1] (AMD3100 3 mg/kg before each antibody dose, anti-PD-1 0.5 mg/mouse every 5 days x3, HPV E7 peptide vaccine intratumorally, caliper tumor volume), the “anti-tumor effect (tumor growth, FIG. 1, FIG. 3)” value is given as “enhanced anti-tumor effect”. In data set [1] (same regimen, Log-rank test), the “survival (FIG. 2, FIG. 4)” value is “prolonged survival”. Further, in data set [2], the “CD8+ T cells” value is “increase”, the Treg infiltration result was “decrease” and the anti-tumor effect entry was “enhanced anti-tumor effect”. Further, the “antagonism of CXCR4” value in data set [3] is “highly specific antagonist of CXCR4”. The “mobilization of leukocytes into the blood” value in data set [4] was “rapidly mobilize all major subsets of mature leukocytes into the blood”. Also, the “safety of long-term, low-dose treatment” value in data set [5] is listed as “demonstrated the safety”.
